Where two headings read alike, the source gives them in different places.
How the values were obtained:
[1] = tested on: nuOXPHOS transcripts; type: cell-based, mouse; details: for nucOX (composite Z-score): normalized score vs mock-treated (DMSO) wells
[2] = tested on: reactive oxygen species; type: cell-based, mouse; details: for ROS (composite Z-score): normalized score vs mock-treated (DMSO) wells
[3] = tested on: cellular dehydrogenase activity; details: for MTT (composite Z-score): normalized score vs mock-treated (DMSO) wells
[4] = tested on: C2C12 myotubes; details: for Viability (composite Z-score): normalized score vs mock-treated (DMSO) wells
[5] = tested on: cytochrome c; type: cell-based, mouse; details: for cyt c (composite Z-score): normalized score vs mock-treated (DMSO) wells
[6] = tested on: OXPHOS gene expression; type: cell-based, mouse; details: for GE-HTS (composite Z-score): normalized score vs mock-treated (DMSO) wells
[7] = tested on: mitochondrial membrane potential; type: cell-based, mouse; details: for ΔΨm (composite Z-score): normalized score vs mock-treated (DMSO) wells
[8] = tested on: mtOXPHOS transcripts; type: cell-based, mouse; details: for mitoOX (composite Z-score): normalized score vs mock-treated (DMSO) wells
[9] = normalized composite Z-score vs mock-treated (DMSO) wells, Conc 20 μM
[10] = composite Z-score vs DMSO, Conc 20 μM
[11] = composite Z-score vs mock-treated (DMSO) wells, concentration of each compound in μM
[12] = Table 4, C2C12 myotubes, 48 h, composite Z-score
[13] = composite Z-score vs DMSO wells, Conc 20 μM

cytochrome c, sequence (P62897 whole entry): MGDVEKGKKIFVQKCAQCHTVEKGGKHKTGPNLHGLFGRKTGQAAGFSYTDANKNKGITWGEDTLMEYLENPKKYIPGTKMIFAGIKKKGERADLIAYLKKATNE

CC(C)(O)[C@H]1CC[C@]2(C)[C@H]3CC[C@@H]4[C@@]5(C)CCCC(C)(C)[C@@H]5[C@@H](O)C[C@@]4(C)[C@]3(C)CC[C@@H]12 [zeorin]
nucOX [1, 9]: 0.278 | ROS [2, 9]: 0.166 | MTT [3, 9]: −0.387 | Viability [4, 9]: 0.495 | cyt c [5, 9]: 0.088 | GE-HTS [6, 9]: 0.381 | ΔΨm [7, 9]: −0.941 | mitoOX [8, 9]: 0.571

(−)-asarinin
nucOX [1, 10]: −0.726 | ROS [2, 10]: −0.229 | MTT [3, 10]: −0.505 | Viability [4, 10]: −0.632 | cyt c [5, 10]: 0.607 | GE-HTS [6, 10]: −1.167 | ΔΨm [7, 10]: −0.439 | mitoOX [8, 10]: −1.858

avermectin B1
nucOX [1, 10]: 0.170 | ROS [2, 10]: 2.442 | MTT [3, 10]: −0.284 | Viability [4, 10]: 0.129 | cyt c [5, 10]: 0.116 | GE-HTS [6, 10]: 0.198 | ΔΨm [7, 10]: −0.336 | mitoOX [8, 10]: 0.295

avocatin A
nucOX [1, 11]: −1.066 | ROS [2, 11]: 0.404 | MTT [3, 11]: −0.249 | Viability [4, 11]: 0.133 | cyt c [5, 11]: 0.849 | GE-HTS [6, 11]: −1.145 | ΔΨm [7, 11]: −0.057 | mitoOX [8, 11]: −1.140

avocatin B
nucOX [1, 11]: −0.863 | ROS [2, 11]: 1.229 | MTT [3, 11]: −1.119 | Viability [4, 11]: −0.869 | cyt c [5, 11]: 0.710 | GE-HTS [6, 11]: −0.935 | ΔΨm [7, 11]: 0.024 | mitoOX [8, 11]: −0.852

beta-escin
nucOX (composite Z-score) ([1]; Conc 20 μM): −0.883 | ROS (composite Z-score) ([2]; Conc 20 μM): −3.107 | MTT (composite Z-score) ([3]; Conc 20 μM): −5.088 | Viability (composite Z-score) ([4]; Conc 20 μM): −5.049 | cyt c (composite Z-score) ([5]; Conc 20 μM): −5.117 | GE-HTS (composite Z-score) ([6]; Conc 20 μM): −0.914 | ΔΨm (composite Z-score) ([7]; Conc 20 μM): −3.416 | mitoOX (composite Z-score) ([8]; Conc 20 μM): −0.745

beta-sitosterol
nucOX [1, 10]: 0.046 | ROS [2, 10]: 0.049 | MTT [3, 10]: −1.974 | Viability [4, 10]: −0.768 | cyt c [5, 10]: 0.061 | GE-HTS [6, 10]: 0.098 | ΔΨm [7, 10]: −0.679 | mitoOX [8, 10]: 0.218

caryophyllene
nucOX (composite Z-score) ([1]; Conc 20 μM): 0.216 | ROS (composite Z-score) ([2]; Conc 20 μM): 0.996 | MTT (composite Z-score) ([3]; Conc 20 μM): −0.525 | Viability (composite Z-score) ([4]; Conc 20 μM): −0.255 | cyt c (composite Z-score) ([5]; Conc 20 μM): −0.121 | GE-HTS (composite Z-score) ([6]; Conc 20 μM): 0.119 | ΔΨm (composite Z-score) ([7]; Conc 20 μM): 1.045 | mitoOX (composite Z-score) ([8]; Conc 20 μM): −0.100

colistin
nucOX [1, 11]: −0.016 | ROS [2, 11]: 0.501 | MTT [3, 11]: −1.283 | Viability [4, 11]: 0.940 | cyt c [5, 11]: 0.409 | GE-HTS [6, 11]: −0.341 | ΔΨm [7, 11]: −0.746 | mitoOX [8, 11]: −0.939

dihydromundulone [reference compound]
nucOX [1, 9]: 0.513 | ROS [2, 12]: 0.537 | ROS [2, 9]: 0.537 | MTT [3, 12]: 0.189 | MTT [3, 9]: 0.189 | Viability [4, 12]: 0.816 | Viability [4, 9]: 0.816 | cyt c [5, 9]: −0.210 | GE-HTS [6, 9]: 0.414 | ΔΨm ([7]; Table 4, C2C12 myotubes, 48 h, JC-1, composite Z-score): −0.530 | ΔΨm [7, 9]: −0.530 | mitoOX [8, 9]: 0.168

estrone hemisuccinate
nucOX [1, 13]: 0.370 | ROS [2, 13]: 0.834 | MTT [3, 13]: −0.686 | Viability [4, 13]: −0.076 | cyt c [5, 13]: 0.250 | GE-HTS [6, 13]: 0.261 | ΔΨm [7, 13]: −0.573 | mitoOX [8, 13]: −0.003

gentamicin sulfate
nucOX [1, 10]: −0.267 | ROS [2, 10]: 0.369 | MTT [3, 10]: −0.150 | Viability [4, 10]: −0.804 | cyt c [5, 10]: −0.896 | GE-HTS [6, 10]: −0.117 | ΔΨm [7, 10]: −1.213 | mitoOX [8, 10]: 0.188

ginkgolic acid
nucOX [1, 10]: −0.315 | ROS [2, 10]: −0.116 | MTT [3, 10]: −0.461 | Viability [4, 10]: −0.686 | cyt c [5, 10]: 0.587 | GE-HTS [6, 10]: −0.062 | ΔΨm [7, 10]: −0.905 | mitoOX [8, 10]: 0.505
